Measured values as given in patent publication US7087729B1, “Peptide conjugates for the stabilization of membrane proteins and interactions with biological membranes” (University Health Network, priority 1999, dated 2006).
Square brackets hold non-standard residues; d marks the D form. Peptide text beside a SMILES is read from it. * marks the point of attachment. X1 = CCCCCCCCCCCCCCCCCCCCCCCCCCCC(=O)*; Orn = NCCC[C@H](N)C(=O)O

What was measured:
[1] = Solubility of lipopeptide detergents in water; type: physicochemical
Protocol: The LPDs with chain lengths from 10 to 16 carbons are soluble in water to over 10 mM, and the LPDs with chain lengths from 18 to 24 carbons are soluble to over 1 mM. […] As a control, a reference molecule known as C-0 is made with the same peptide scaffold, but without the coupled lipids. […] Every batch of peptide is analyzed by MS to confirm the synthesis.

[2] = target: T1, bacteriorhodopsin (Halobacterium salinarum, UniProt P02945); test: Stabilization of detergent-solubilized bacteriorhodopsin after exchange of OG for LPD; absorption spectrum of supernatant during storage; set-up: species or system Halobacterium salinarium; details: stored in the dark at room temperature, spectra at 1 to 32 days, supernatant after 100,000xg
T1 construct: Purple membranes were isolated by overlaying 12.5 mL of the membrane suspension on a 40%/60% (10 mL/7.5 mL) sucrose gradient; made in house; host or cells: Halobacterium salinarium (strain a gift of J. Lanyi); protein isolated from purple membranes of the natural producer
T1 sequence (P02945 14-261 limits assumed): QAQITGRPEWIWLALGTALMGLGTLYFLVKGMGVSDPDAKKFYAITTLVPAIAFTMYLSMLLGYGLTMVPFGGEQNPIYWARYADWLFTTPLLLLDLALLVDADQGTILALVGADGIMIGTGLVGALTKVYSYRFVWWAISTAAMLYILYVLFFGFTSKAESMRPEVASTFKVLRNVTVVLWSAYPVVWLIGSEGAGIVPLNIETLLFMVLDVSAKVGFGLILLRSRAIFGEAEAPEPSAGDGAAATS

[3] = cited from earlier work

SMILES | solubility in water (in words) [1] | preservation of the native bacteriorhodopsin absorption spectrum over storage time [2] | preservation of the native bacteriorhodopsin absorption spectrum over storage time ([2]; listed as octyl glucoside (OG)) | solubility in water [3]
CCCCCCCCCCCCCCCCCCCCCCCCCCCC(=O)NCCC[C@H](NC(=O)[C@H](C)NC(=O)[C@H](CCCCN)NC(=O)[C@H](C)NC(=O)[C@H](C)NC(=O)[C@H](CCCCN)NC(=O)[C@H](CCC(=O)O)NC(=O)[C@H](C)NC(=O)[C@H](C)NC(=O)[C@H](CCC(=O)O)NC(=O)[C@H](C)NC(=O)[C@H](C)NC(=O)[C@H](Cc1ccc(O)cc1)NC(=O)[C@H](CCCCN)NC(=O)[C@H](C)NC(=O)[C@H](C)NC(=O)[C@H](CCCCN)NC(=O)[C@H](CCC(=O)O)NC(=O)[C@H](C)NC(=O)[C@H](C)NC(=O)[C@H](CCC(=O)O)NC(=O)[C@H](C)NC(=O)[C@H](CCCNC(=O)CCCCCCCCCCCCCCCCCCCCCCCCCCC)NC(=O)[C@H](C)NC(C)=O)C(=O)N[C@@H](C)C(N)=O [LPD-28] (Ac-A[Orn](X1)AEAAEKAAKYAAEAAEKAAKA[Orn](X1)A-NH2) | poorly soluble in water | – | – | –
CCCCCCCCO[C@@H]1O[C@H](CO)[C@@H](O)[C@H](O)[C@H]1O [OG, octyl β-D-glucopyranoside] | – | lost the characteristic spectum for native bacteriorhodopsin within a few days | loss of the native conformation of the protein over time | greater than 20 % (w/v)
CCCCCCCCCCO[C@@H]1O[C@H](CO)[C@@H](O)[C@H](O)[C@H]1O [decyl glucoside] | – | – | – | 0.1 % (w/v)
CCCCCCCCCCCCO[C@@H]1O[C@H](CO)[C@@H](O)[C@H](O)[C@H]1O [dodecyl glucoside] | – | – | – | 0.008 % (w/v)
